Structures can show the parent of a compound that is named as a salt.
Assays:
[1] = system: wheals induced by intradermal injections of histamine; assay: reduction of wheals induced by intradermal injections of histamine in guinea pigs; assay type: in vivo, guinea pig; details: Cavia porcellus, po, 1 h, orally administered one hour prior to histamine injection, intradermal injections of 1γ each of histamine, read-out: ED50 (amount required to reduce by 50% wheals induced by intradermal histamine)
[2] = system: aerosol antigen induced bronchial spasms and death; assay: prevention of aerosol antigen induced bronchial spasms and death in the guinea pig; assay type: in vivo; details: Cavia porcellus, po, orally, read-out: minimal amount required to prevent aerosol antigen induced bronchial spasms and death
Excerpt: The minimal amounts of the compounds of Examples 5 and 9 required to prevent aerosol antigen induced bronchial spasms and death in the guinea pig are respectively 4.0 and 8.0 milligrams per kilogram of body weight orally.

SMILES | ED50 [1] [mg/kg] | minimal effective dose [2] [mg/kg]
Fc1ccc(C=CCCN2CCC(C(c3ccccc3)c3ccccc3)CC2)cc1 [Example 2, 4-(Diphenylmethyl)-1-[4-(p-fluorophenyl)-3-butenyl]-piperidine hydrochloride hemihydrate] | 14.4 | –
Cl.O=C(CCCN1CCC(=C(c2ccccc2)c2ccccc2)CC1)c1cccs1 [Example 5, 4-[4-(Diphenylmethylene)piperidino]-1-(2-thienyl)-1-butanone hydrochloride] | 3.1 | 4
CC(C)(C)c1ccc(C(=O)CCCN2CCC(=C(c3ccccc3)c3ccccc3)CC2)cc1.Cl [Example 9, 4'-tert-Butyl-4-[4-(diphenylmethylene)piperidino]butyrophenone hydrochloride] | 4 | 8

— patent US4180583A, “Olefinic 4-substituted piperidino derivatives as therapeutics” (Richardson-Merrell Inc., priority 1978, dated 1979)
